Molecules are shown by their SMILES.

One test concerns CD3-stimulated T cells. As to the kind of experiment: CD3 stimulation of T cells: metabolite titration curves, 3[H]-thymidin incorporation. Type of test: cell-based, human. The settings on record: anti-CD3 antibody, 3 days. From the text:
• (a) Allogeneic T-cell response. DCs were infected with recombinant IDO-adeno-GFP (DC-IDO-GFP), IDO-adeno (DC-IDO) or with control adenoviruses (DC-adeno) at a MOI (multiplicity of infection) up to 500 for 2 days. Lymphocytes (PBMCs) were separated from peripheral blood of healthy donors by density gradient centrifugation and typed for HLA antigens. Only HLA-DR-different responder lymphocytes were used for DC-induced stimulation. Native DCs only, lymphocytes only, native DCs + allogeneic lymphocytes, DC-IDO-GFP + allogeneic lymphoytes, DC-IDO + allogeneic lymphoytes, DC-adeno + allogeneic lymphocytes (each time 10^5 DC + 10^5 lymphocytes in 0.2ml medium) were cultured in RPMI 1640 medium (Gibco BRL Life Technologies GmbH, Eggenstein, Germany) with 10% fetal calf serum (FCS) (final tryptophan concentration 5.25 mg/l = 25.69 uM) and Penicillin G/Streptomycin. […] In order to verify whether IDO expression or adenovirus infection harm the DCs, 10^5 cells were infected with IDO-adeno-GFP, IDO-adenovirus, or adenovirus only at a stepwise decreasing MOI (500, 250, 125, ........ 3.9) and cell viability was measured in FACS following double staining with 7-AAD and anti-CD83 antibody-PE. The percentage of dead cells never exceeded 30% for any MOI following IDO-adeno-GFP- or IDO-adeno-infection and 40% following adenovirus(control)-infection. Moreover, these values were not higher than those of native DCs cultured for the same period of time. The experiment was repeated using ethidium bromide or trypan blue staining with virtually the same result. […] Peripheral blood lymphocytes were cultured (10^5 cells/well) in RPMI 1640 (10% FCS) with anti CD3 monoclonal antibody (Ortho Diagnostic Systems Inc., Raritan, NJ) (final dilution 1:200). […] Kynurenine, 3-hydroxykynurenine, anthranilic acid, 3-hydroxyanthranilic acid, and quinolinic acid (Sigma-Aldrich Chemie GmbH, Taufkirchen, Germany)(for all substances purity>98%) were dissolved in RPMI 1640 and added to cell cultures at various concentrations. In an other experiment, to determine whether the metabolites have an additive effect, equal concentrations of the compounds were mixed and added to the cultures. […] Positive controls consisted of CD3-stimulated cells without metabolites and negative controls of unstimulated cells. • (d) Restimulation of suppressed T cells. Lymphocytes (10^5 cells/well) were cultured in RPMI 1640 (10% FCS) with anti-CD3 monoclonal antibody (final dilution 1:200) and kynurenine (dilution series). […] Controls consisted of cells prestimulated with anti-CD3 but not pretreated with kynurenine. In an other restimulation experiment lymphocytes were stimulated with allogeneic DCs as described, in the presence (47-1500µM) or absence of kynurenine. Control cultures contained DCs or lymphocytes only. After 5 days the cells were extensively washed, and restimulated with an identical number of DCs derived from the same donor or from third party donors. […] In order to define the concentration of tryptophan which reduces T- lymphocyte proliferation in our test system, 10^5 lymphocytes were incubated in tryptophan-free RPMI 1640 medium (Gibco BRL Life Technologies) with or without 10% FCS, stimulated with anti-CD3 monoclonal antibody, and various amounts (0-38µM) of tryptophan were added. Unimpaired proliferation was observed down to 0.30µM (medium with FCS) and 1 .20µM (without FCS). Complete inhibition was not obtained at any concentration (positive control 100% proliferation; maximal suppression in medium with FCS: approx. 66% and without FCS: approx. 33%). All cell cultures were done in triplicate.
All tests were carried out in triplicate and results are given as mean +standard deviation. […] Thereafter, the concentration of substance giving 50% proliferation was calculated by regression.

The test system of another test is T cells. Nature of the test: Detection of cell death: 7-AAD staining of anti-CD3 stimulated lymphocytes, FACScan. Type of test: cell-based, human. Conditions: anti-CD3, 3 days; 1501 µM kynurenine, 349µM 3-hydroxykynurenine, 510µM 3-hydroxyanthranilic acid, mixture 64 µM of each compound. As for the experimental part: Lymphocytes were stimulated in culture with anti-CD3 monoclonal antibody (s. above) in the presence or absence (control) of kynurenine (1501µM), 3-hydroxyanthranilic acid (510µM), 3-hydroxykynurenine (348µM), or metabolite mixture (64µM kynurenine + 64µM 3-hydroxykynurenine + 64µM anthranilic acid + 64µM 3-hydroxyanthranilic acid + […] quinolinic acid). After 3 days the cells were washed and resuspended in PBS (10^6/ml). Thereafter, the cells (100µ1 suspension) were labeled with anti-CD3-FITC antibody (3 µl), stained with 7-AAD (5µl) for 15 min, and the percentage of 7-AAD-positive (dead) T cells was determined in a FACScan. In an other experiment T cells, B cells, NK-cells, or DCs were separated from PBMCs by magnetic beads or generated as described, and cultured (5x10^5 cells/ml) with a mixture of kynurenine metabolites (kynurenine + 3-hydroxykynurenine + anthranilic acid + 3-hydroxyanthranilic acid + quinolinic acid)(8, 16, or 32µM respectively for each compound). In one setting T cells were activated with anti-CD3 antibody. Cell death was measured daily for 5 days by 7-AAD staining and expressed in percentage of dead cells.

As for `Nc1c(O)cccc1C(=O)CC(N)C(=O)O` (stereo not drawn) [3-hydroxykynurenine], the IC50 in the test with CD3-stimulated T cells (Homo sapiens, T-cell, 72 h, single substance, read-out: I50 of proliferation of CD3-stimulated T cells) was 187 µM. Besides, the “suppression of T cell response (in words)” value in the test with CD3-stimulated T cells is listed as “strongly suppress T cells”. Moreover, in the test with T cells, the “dead (7-AAD-positive) T cells (in words)” value is listed as “virtually all cells died”.

Values taken from patent EP1369114A1, “Use of tryptophan metabolites as pharmaceutical agents” (Terness, Peter, Priv. Doz. Dr., priority 2002, dated 2003).
